# Data reported in article PMC4830539, “Chemical Inhibition of Histone Deacetylases 1 and 2 Induces Fetal Hemoglobin through Activation of GATA2” (PLoS ONE, 2016).
# How the values were obtained:
# [1] = system: HbF protein; experiment: HbF protein by flow cytometry in BM cells (CS1, CS2); assay type: cell-based, human; details: for HbF positive cells / MFI of HbF positive cells: 1 μM ACY-957 or 30 μM hydroxyurea
# Method: CD34+ cells isolated from human bone marrow of healthy normal donors (Lonza, AllCells, or StemCell Technologies), referred to as BM cells throughout this work, were cultured using two distinct 2-phase culture systems. These systems have been described previously and are referred to as Culture System 1 (CS1) and Culture System 2 (CS2) throughout this work. CS1 expansion media is StemSpan SFEM (StemCell Technologies) supplemented with CC100 (StemCell Technologies), 100 U/mL penicillin and 100 μg/mL streptomycin. CC100 is a mix of Flt-3 ligand (FLT3LG), KIT ligand (KITLG), interleukin-3 (IL3), and interleukin-6 (IL6). CS1 differentiation media is StemSpan SFEM supplemented with 1 U/ml erythropoietin (EPO), 5 ng/mL IL3, 20 ng/mL KITLG, 2 μM dexamethasone, 1 μM beta-estradiol, 100 U/mL penicillin and 100 μg/mL streptomycin. CS2 expansion media is StemSpan SFEM supplemented with 1% glutamine, 40 μg/mL lipids (Sigma), 100 ng/mL KITLG, 10 ng/mL IL3, and 0.5 U/mL EPO. CS2 differentiation media is same as CS2 expansion media, except 3 U/mL EPO.
# Flow cytometry was performed on a FC500 flow cytometer ([…]). Fetal hemoglobin protein was assayed using the Fetal Hemoglobin Test Kit (Life Technologies) according to manufacturer’s protocol. Samples were stained with FITC-conjugated mouse IgG1 anti-human HbF antibody (clone HbF-1, Life Technologies). Each sample was also stained with a FITC-conjugated mouse IgG1 isotype control antibody (clone X40, BD Biosciences) and used as a negative control. FETALtrol cells were used as positive controls (Trillium Diagnostics). TFRC and GYPA were detected on fresh cells by staining with 20 μL of PE-conjugated anti-human TFRC (clone M-A712, catalog 555537, BD Biosciences) and 0.5 μL of FITC- or APC-conjugated anti-human GYPA (clone GA-R2 (HIR2), catalog 559943 or 551336, BD Biosciences) in 200 μL PBS with 0.1% BSA for 40 min on ice. Forward and side scatter, or staining with 7AAD (catalog 559925, BD Biosciences), was used to identify viable cells.
# To determine if the HBG mRNA induction observed in the presence of ACY-957 was associated with an increase in the HbF protein, CS1 and CS2 cells at day 5 were stained with a fluorescently conjugated anti-HbF antibody and evaluated by flow cytometry. HbF positive cells were increased by 2 to 3-fold upon treatment with ACY-957, which exceeded the response observed with hydroxyurea (Fig 2B and 2E).
# [2] = system: gene expression in BM cells; experiment: Gene expression profiling (Affymetrix GeneChip) of erythroid progenitors; assay type: cell-based, human
# Method: BM cells were cultured in CS1 expansion media for 7 days, and then shifted to CS1 differentiation media containing vehicle or 1 μM ACY-957 for 5 days. Total RNA was isolated from cells at day 5 of differentiation using RNeasy Micro Kit with on-column DNase digestion (Qiagen). This experiment was performed in triplicate using cells from three independent donors on separate days to obtain vehicle treated (n = 3) and ACY-957 treated (n = 3) samples for GeneChip analysis. GeneChip sample preparation, hybridization, and data acquisition was performed by the Covance Genomics Laboratory (Seattle, WA) using Affymetrix GeneChip PrimeView™ Human Gene Expression Array according to manufacturer’s protocol. […] For the analysis of HDAC1 or HDAC2 knockdown in erythroblasts, raw gene expression data was downloaded from NCBI GEO website, series GSE22366 [21].
# Data analysis was performed using BRB-ArrayTools. GSE60791 and GSE22366 data series were imported and analyzed independently. Raw data CEL files were processed with the robust multi-chip average (RMA) algorithm. Fold changes were derived from the geometric mean of intensity values in each treatment class. In the case of GSE60791, P-values were generated between ACY-957 and vehicle treated samples using a paired t test with random variance model applied. In the case of GSE22366, P-values were generated between luciferase control and HDAC1 or HDAC2 knockdown samples using a two-sample t test with random variance model applied.
# Duplicate gene symbols were removed by selecting the probe set with the lowest P-value. Next, these 4 gene sets were appended to the Molecular Signatures Database collection of Chemical and Genetic Perturbations. This database contained approximately 2777 gene sets, each containing at least 15 genes and no more than 10000 genes. Finally, log base 2 mRNA data from ACY-957 or vehicle treated cells was loaded into the publically available GSEA software from the Broad Institute and queried against the database of gene sets described above. ACY-957 phenotype was compared against vehicle phenotype by first collapsing the data set to gene symbols based on maximum probe signal and then using a weighted, signal-to-noise metric for ranking genes. Gene set permutations were performed to generate nominal P-values for each gene set.
# We interrogated the mechanism through which HDAC1/2 inhibition induces HBG by performing gene expression profiling on ACY-957 or vehicle treated cells in CS1. Because HDAC inhibition prevented cells from fully upregulating GYPA (Fig 4) we isolated RNA at day 5 of differentiation, a time point prior to the observed differentiation block.
# [3] = treatment versus control, 1 μM, day 5
structure (smiles),measurement,setting,value
Nc1ccc(-c2cccs2)cc1NC(=O)c1ccc2nc(N3CCNCC3)ccc2c1 [ACY-957],HbF positive cells,"[1]; CS1, day 5",36%
same,MFI of HbF positive cells,"[1]; CS1, day 5",36
same,increase of HbF positive cells,"[1]; CS1 and CS2, day 5, 1 μM",2 to 3 fold
same,increase of mean fluorescent intensity (MFI) of HbF positive cells,"[1]; CS1 and CS2, day 5, 1 μM",up to 2 fold
same,HbF positive cells,"[1]; CS2, day 5",50%
same,MFI of HbF positive cells,"[1]; CS2, day 5",20
same,BCL11A down-regulated,"[2]; GeneChip, 1 μM, day 5",1.3 fold
same,GATA2 up-regulated,"[2]; GeneChip, 1 μM, day 5",2.8 fold
same,SOX6 down-regulated,"[2]; GeneChip, 1 μM, day 5",2.5 fold
same,expression of HBG repressors MYB and KLF1,"[2]; GeneChip, 1 μM, day 5",unaffected
same,GATA2 induced (abstract),[2]; gene expression profiling of erythroid progenitors,greater than 3 fold
same,"BCL11A Ratio, candidate gene expression by GeneChip",[2]; [3],0.77
same,"GATA1 Ratio, candidate gene expression by GeneChip",[2]; [3],1.0
same,"GATA2 Ratio, candidate gene expression by GeneChip",[2]; [3],2.8
same,"KLF1 Ratio, candidate gene expression by GeneChip",[2]; [3],0.87
same,"MYB Ratio, candidate gene expression by GeneChip",[2]; [3],1.1
same,"SOX6 Ratio, candidate gene expression by GeneChip",[2]; [3],0.41
